Measured values from patent US20080090770A1, “Modulation of Muc1 Mediated Signal Transduction” (priority 2003, published 2008).

Assays:
PDZ domains [1] = test: Modified ELISA: profile (matrix) screen of biotinylated peptide against individual GST-PDZ domain fusion proteins; type: binding, human
Text: Profile Results Peptides corresponding to the C-terminus were able to bind a number of PDZ domains in a concentration dependent manner. […] Identities of the interacting PDZ domains are listed directly above or next to the bar representing the absorbance in the assay.
The results, shown in FIGS. 11, 12 and 13, represent the absorbance and standard deviation of interactions of higher relative strength. The data in FIG. 13 for PDZK1, PTPL1 d5, MUPP1 d4 and INADL d1 have high standard deviations and thus require further verification to validate intensity of binding.

[2] = target: T1, biotinylated TAT-MUC1 binding to RIM2 (Homo sapiens, UniProt Q9UQ26); test: Modified ELISA: competition with binding of biotinylated TAT-MUC1 peptide (SEQ ID NO: 134) to PDZ domain; conditions: FIG. 10, among three peptides
T1 construct: RIM2, PDZ domain 1: GI#: 12734165; made in house; host or cells: E. coli
T1 sequence (Q9UQ26 668-754 limits assumed): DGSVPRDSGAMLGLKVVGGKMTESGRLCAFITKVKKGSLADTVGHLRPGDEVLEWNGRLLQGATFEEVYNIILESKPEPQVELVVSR

[3] = target: T2, biotinylated TAT-MUC1 binding to ZO1 d2 (Homo sapiens, UniProt Q07157); test: as above
T2 construct: made in house; host or cells: E. coli
T2 sequence (Q07157 186-264 limits assumed): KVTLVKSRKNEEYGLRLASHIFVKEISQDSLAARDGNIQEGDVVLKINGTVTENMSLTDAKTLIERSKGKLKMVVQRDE

PDZ domains [4] = test: Self-competition experiments in modified ELISA; type: binding, human; conditions: of the three peptides tested
[5] = target: T3, KIAA0751 (RIM2) PDZ domain 1 (Homo sapiens, UniProt Q9UQ26); test: Modified ELISA: titration of biotinylated peptide against GST-PDZ domain fusion protein; type: binding
T3 construct: RIM2, PDZ domain 1: GI#: 12734165; made in house; host or cells: E. coli
T3 sequence (Q9UQ26 668-754 limits assumed): T1 sequence (Q9UQ26 668-754 limits assumed)
Protocol: Coat plate with 100 μl of 5 μg/ml anti-GST, O/N at 4° C.;
Dump contents of plate & out tap dry on paper towels;
Block with 200 μl Assay Buffer for 2 hrs at room temperature;
Prepare proteins in Assay Buffer;
Add proteins at 50 μl per well, incubate 1 to 2 hrs at 4° C.;
Prepare peptides in Assay Buffer;
Add peptides at 50 μl per well on ice (write time on plate);
Incubate on ice after last peptide has been added for exactly 10 minutes;
Place at room temp for exactly 20 minutes;
Prepare HRP-Streptavidin within 10 minutes of time of use;
Promptly wash 3× with cold PBS;
Add 100 μl per well of HRP-Streptavidin (write time on plate);
Incubate at 4° C. for exactly 20 minutes;
Turn on plate reader and prepare files;
Promptly wash 5× with PBS at room temperature;
Add 100 μl/well TMB substrate (write time on plate);
Incubate in dark at room temp for a maximum of 30 minutes;
Read plate at 25 minutes (650 nm);
Stop reaction with 100 μl of 0.18M H2SO4, 30 min. after adding TMB;
Take last reading at 450 nm soon after stopping reaction;
Titrations to determine relative EC50 values: Peptide corresponding to MUC1 was then titrated against a constant amount of the PDZ domain-containing recombinant proteins identified in the first part of this example.
Using the modified ELISA described supra in Example 6, the effect of two variant carboxy-terminal MUC1 peptides were examined. Two MUC1 isoforms with an A/T substitutions at the fifth amino acid residue from the carboxy-terminal end have been reported in the literature, e.g., carboxy-terminal AAASANL disclosed in GenBank P15941 [gi:547937] and carboxy-terminal AATSANL disclosed in GenBank A35175 [gi:11385307]. Peptides were prepared consisting of the TAT sequence SEQ ID NO: 102 and the terminal nine amino acid residues of the relevant MUC1 sequence, i.e., […]
Using the modified ELISA described supra in Example 7, the binding to the RIM2 PDZ domain of the biotinylated peptide sequences listed in Table 8 were examined. […] Relative EC50 values were calculated from a curve fit of the data for each interaction.

Sequence | Interactions with higher absorbance readings in PDZ profile (PDZ domains [1]; MUC1 peptide concentration 0.01 μm, FIG. 3) | Interactions with higher absorbance readings in PDZ profile (PDZ domains [1]; MUC1 peptide concentration 0.1 μm, FIG. 4) | Competitive inhibition of biotinylated SEQ ID NO: 134 (TAT-MUC1) binding [2] | Competition for binding of biotinylated SEQ ID NO: 134 (TAT-MUC1) [3] | Behaviour in self-competition experiments (PDZ domains [4]) | EC50 for binding to RIM2, compared with SEQ ID NO: 136 [5] | Selectivity of binding, RIM2 versus ZO 1 d2 [5] | Tightness of binding to RIM2 among the three peptides ([5]; comparison of SEQ ID NO: 136, 137, 138)
NGGSSLSYTNPAVAATSANL [MUC1 peptide] | seven interactions are observed to give higher absorbance readings | more interactions are observed | – | – | – | – | – | –
YGRKKRRQRRRARGDRKRIV [SEQ ID NO: 136] | – | – | best competitive inhibitor | can also compete for binding | – | – | – | –
YGRKKRRQRRRQDEEEGIWA [SEQ ID NO: 137] | – | – | – | only a relatively weak competitor | acts the most like a traditional competitive inhibitor | lower EC50 | binds RIM2 more strongly than ZO 1 d2 | binds most tightly
